Test results taken from ChEMBL document CHEMBL1201862, “PubChem BioAssay data set” (2004).
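Cultured in 96-well plates, cells were exposed to test compound for 48 hours across five concentrations. GI50 marks 50% less growth.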 The source made the active and inactive calls. Rule as the data show it: active = GI50 up to about 1.1 µM and inactive = higher. Where a SMILES comes first, the peptide text is derived from it. [ ]: non-standard residue; d: D form. The star is where a group is joined. ξ: configuration not given here. X38 = O=C(OCc1ccccc1)[C@@H]1CCC[C@H]1N*; Fmoc = O=C(OCC1c2ccccc2-c2ccccc21)*; ξW = NC(Cc1c[nH]c2ccccc12)C(=O)O; ξF = NC(Cc1ccccc1)C(=O)O; Boc = CC(C)(C)OC(=O)*; ξK = NCCCCC(N)C(=O)O; ξT = CC(O)C(N)C(=O)O; tBu = CC(C)(C)*

Legend:
Experiment in all cases: NCI-60 cell line screen, 48 h
M14 = test system: M14
EKVX = test system: EKVX
SF-268 = test system: SF-268
DU-145 = test system: DU-145
NCI-H460 = test system: NCI-H460
SN12C = test system: SN12C
ACHN = test system: ACHN
UACC-257 = test system: UACC-257
HCC 2998 = test system: HCC 2998
K562 = test system: K562
HL-60 = test system: HL-60
LOX IMVI = test system: LOX IMVI
NCI-H522 = test system: NCI-H522
NCI-H226 = test system: NCI-H226
COLO 205 = test system: COLO 205
SK-MEL-2 = test system: SK-MEL-2
HOP-62 = test system: HOP-62
U-251 = test system: U-251
SNB-19 = test system: SNB-19
SF-539 = test system: SF-539

Row | SMILES | GI50 (M14) | GI50 (EKVX) | GI50 (SF-268) | GI50 (DU-145) | GI50 (NCI-H460) | GI50 (SN12C) | GI50 (ACHN) | GI50 (UACC-257) | GI50 (HCC 2998) | GI50 (K562) | GI50 (HL-60) | GI50 (LOX IMVI) | GI50 (NCI-H522) | GI50 (NCI-H226) | GI50 (COLO 205) | GI50 (SK-MEL-2) | GI50 (HOP-62) | GI50 (U-251) | GI50 (SNB-19) | GI50 (SF-539)
1 | CO/C(=N\N=C\c1ccccc1F)c1ccncc1 | > 10 µM (inactive) | > 10 µM (inactive) | > 10 µM (inactive) | > 10 µM (inactive) | > 10 µM (inactive) | > 10 µM (inactive) | > 10 µM (inactive) | > 10 µM (inactive) | > 10 µM (inactive) | > 10 µM (inactive) | > 10 µM (inactive) | > 10 µM (inactive) | > 10 µM (inactive) | > 10 µM (inactive) | > 10 µM (inactive) | > 10 µM (inactive) | > 10 µM (inactive) | > 10 µM (inactive) | > 10 µM (inactive) | 
2 | Nc1c(-c2ccc(Cl)c(Cl)c2)c2ccc([N+](=O)[O-])cc2c(=O)n1-c1nc2ccccc2s1 | 0.675 µM (active) | 0.446 µM (active) | 0.531 µM (active) | 0.867 µM (active) | 0.386 µM (active) | 0.335 µM (active) | 0.448 µM (active) | 0.471 µM (active) | 18.6 µM (inactive) | 0.367 µM (active) | 0.318 µM (active) | 0.538 µM (active) | 0.193 µM (active) | 0.586 µM (active) | 1.5 µM (inactive) | 0.369 µM (active) | 1.06 µM (active) | 0.425 µM (active) | 0.418 µM (active) | 2.65 µM (inactive)
3 | CC(OC(C)(C)C)C(NC(=O)C(CCCCNC(=O)OC(C)(C)C)NC(=O)C(Cc1c[nH]c2ccccc12)NC(=O)C(Cc1ccccc1)NC(=O)OCC1c2ccccc2-c2ccccc21)C(=O)NC(Cc1ccccc1)C(=O)N[C@@H]1CCC[C@H]1C(=O)OCc1ccccc1 (stereo not given in full) (Fmoc-[ξF][ξW][ξK](Boc)[ξT](tBu)[ξF]-X38) | 38.9 µM (inactive) | > 100 µM (inactive) | > 100 µM (inactive) | > 100 µM (inactive) | > 100 µM (inactive) | > 100 µM (inactive) | > 100 µM (inactive) | > 100 µM (inactive) | > 100 µM (inactive) | > 100 µM (inactive) | > 100 µM (inactive) | > 100 µM (inactive) | > 100 µM (inactive) | > 100 µM (inactive) | > 100 µM (inactive) | 32.1 µM (inactive) | > 100 µM (inactive) | > 100 µM (inactive) |  | > 100 µM (inactive)
4 | Oc1ccc2c3c1OC1c4[nH]c5c(c4CC4(O)C(C2)N(CC2CC2)CC[C@]314)CC1(O)C2Cc3ccc(O)c4c3[C@@]1(CCN2CC1CC1)C5O4 (stereo not given in full) | 17.5 µM (inactive) | 35.6 µM (inactive) | 19.8 µM (inactive) | 37.2 µM (inactive) |  | 35 µM (inactive) | > 100 µM (inactive) | 20.3 µM (inactive) | 18.7 µM (inactive) | 25.4 µM (inactive) | 21.9 µM (inactive) | 27 µM (inactive) | 19.3 µM (inactive) | 27.8 µM (inactive) | 18.1 µM (inactive) | 24.2 µM (inactive) | 77.3 µM (inactive) | 19.9 µM (inactive) | 24.3 µM (inactive) | 
5 | COc1ccc(N2C(=O)CSC2c2cc(OC)c(OC)c(OC)c2)cc1 (stereo not given) | 18.6 µM (inactive) | 28.4 µM (inactive) | 31.8 µM (inactive) | 14.5 µM (inactive) | 18.9 µM (inactive) | 25.1 µM (inactive) | 20.7 µM (inactive) | 12.5 µM (inactive) | 16.7 µM (inactive) | 11.9 µM (inactive) | 17.5 µM (inactive) | 23.1 µM (inactive) | 14.1 µM (inactive) | 62.7 µM (inactive) | 25.4 µM (inactive) | 33.9 µM (inactive) |  | 18.9 µM (inactive) | 23.2 µM (inactive) | 32.8 µM (inactive)
6 | Nc1nc2c(C(=O)NCc3cccs3)nnn2c2cccc(Cl)c12 | > 100 µM (inactive) | 57.8 µM (inactive) | > 100 µM (inactive) | > 100 µM (inactive) | > 100 µM (inactive) | > 100 µM (inactive) | > 100 µM (inactive) | > 100 µM (inactive) | 30.5 µM (inactive) | > 100 µM (inactive) | > 100 µM (inactive) | > 100 µM (inactive) | > 100 µM (inactive) | 92 µM (inactive) | > 100 µM (inactive) | > 100 µM (inactive) | > 100 µM (inactive) | > 100 µM (inactive) | > 100 µM (inactive) | 77.3 µM (inactive)
7 | COC(=O)c1ccccc1C1CN=NC12Cc1c(ccc(C)c1C)C2=O (stereo not given) | > 100 µM (inactive) | > 100 µM (inactive) | 39.1 µM (inactive) | > 100 µM (inactive) | > 100 µM (inactive) | > 100 µM (inactive) | > 100 µM (inactive) | > 100 µM (inactive) | > 100 µM (inactive) | > 100 µM (inactive) | > 100 µM (inactive) | > 100 µM (inactive) | > 100 µM (inactive) | > 100 µM (inactive) | > 100 µM (inactive) | > 100 µM (inactive) | 57.3 µM (inactive) | 48.3 µM (inactive) | 85.9 µM (inactive) | 
8 | c1ccc(C(CCN2CCCC2)c2ccccn2)cc1 (stereo not given) | > 100 µM (inactive) | > 100 µM (inactive) | > 100 µM (inactive) | > 100 µM (inactive) | > 100 µM (inactive) | > 100 µM (inactive) | > 100 µM (inactive) | > 100 µM (inactive) | > 100 µM (inactive) | > 100 µM (inactive) |  | > 100 µM (inactive) | > 100 µM (inactive) | > 100 µM (inactive) | > 100 µM (inactive) | > 100 µM (inactive) | > 100 µM (inactive) | > 100 µM (inactive) | > 100 µM (inactive) | 
9 | CCOC(=O)Nc1sc2c(c1C#N)CC(C)CC2 (stereo not given) | 2.66 µM (inactive) | 24.7 µM (inactive) | 10.7 µM (inactive) | 20.9 µM (inactive) | 3.41 µM (inactive) | 9.62 µM (inactive) | 14.7 µM (inactive) | 11 µM (inactive) | 2.24 µM (inactive) | 2.38 µM (inactive) | 0.1 µM (active) | 10.2 µM (inactive) | 1.25 µM (inactive) | 6.15 µM (inactive) | 4.17 µM (inactive) | 2.16 µM (inactive) | 9.79 µM (inactive) | 5.42 µM (inactive) | 3.16 µM (inactive) | 
10 | COc1cc(C2c3cc4c(cc3OC(NN)C2C)OCO4)cc(OC)c1OC (stereo not given) | 0.483 µM (active) | 10.2 µM (inactive) | 2.5 µM (inactive) | 1.94 µM (inactive) | 0.489 µM (active) | 0.757 µM (active) | 1.78 µM (inactive) |  | 0.536 µM (active) | 0.333 µM (active) | 0.323 µM (active) | 0.458 µM (active) | 0.869 µM (active) | 0.979 µM (active) | 0.575 µM (active) | 0.647 µM (active) | 0.462 µM (active) | 0.403 µM (active) | 0.813 µM (active) | 0.247 µM (active)
11 | CC(C)C1OC(/C=C/c2ccccc2)OCC1(C)C (stereo not given) | 36.2 µM (inactive) | 27.5 µM (inactive) | 33 µM (inactive) | 37.2 µM (inactive) | 17.1 µM (inactive) | 21.6 µM (inactive) | 32.2 µM (inactive) | 24.8 µM (inactive) | 19.6 µM (inactive) | 25.4 µM (inactive) | 19.9 µM (inactive) | 18.9 µM (inactive) | 13.8 µM (inactive) | 23.5 µM (inactive) | 16.6 µM (inactive) | 18.2 µM (inactive) | 32.1 µM (inactive) | 24.9 µM (inactive) | 41.4 µM (inactive) | 
12 | CCn1c(=O)c2cn[nH]c2n(C)c1=O | > 100 µM (inactive) | > 100 µM (inactive) | > 100 µM (inactive) | > 100 µM (inactive) | > 100 µM (inactive) | > 100 µM (inactive) | > 100 µM (inactive) | > 100 µM (inactive) | > 100 µM (inactive) | > 100 µM (inactive) |  | > 100 µM (inactive) | > 100 µM (inactive) | > 100 µM (inactive) | > 100 µM (inactive) | > 100 µM (inactive) | > 100 µM (inactive) | > 100 µM (inactive) | > 100 µM (inactive) | > 100 µM (inactive)
13 | CNC(=S)N1CCN(C(C)=O)C1=S | 42.4 µM (inactive) | 25.1 µM (inactive) | 54.8 µM (inactive) | > 100 µM (inactive) | 87.9 µM (inactive) | 57.7 µM (inactive) | > 100 µM (inactive) | 70.6 µM (inactive) | 31.9 µM (inactive) | 54.2 µM (inactive) | 47.8 µM (inactive) | 76.7 µM (inactive) | 45.1 µM (inactive) | 22.4 µM (inactive) | 97.5 µM (inactive) | 2.25 µM (inactive) | 70.5 µM (inactive) | 4.02 µM (inactive) |  | 20.4 µM (inactive)
14 | N#Cc1ccc(Oc2nc3ccccc3nc2C(=O)O)cc1 | > 100 µM (inactive) | > 100 µM (inactive) | > 100 µM (inactive) | > 100 µM (inactive) | > 100 µM (inactive) |  | > 100 µM (inactive) | > 100 µM (inactive) | > 100 µM (inactive) | > 100 µM (inactive) | > 100 µM (inactive) | > 100 µM (inactive) | > 100 µM (inactive) | > 100 µM (inactive) | > 100 µM (inactive) | > 100 µM (inactive) | > 100 µM (inactive) | > 100 µM (inactive) | > 100 µM (inactive) | 
